Measurements reported in ChEMBL document CHEMBL1123690, “Redox chemistry of the 9-anilinoacridine class of antitumor agents” (J Med Chem, 1987).
pIC50: −log10 of the molar value.

Assays:
[1] = test system: L1210; experiment: Inhibitory concentration to reduce the growth of L1210 cells by 50% after 70 hr.; type: functional, cell-based; conditions: Mus musculus, L1210, 70 h
[2] = test system: L1210; experiment: Dose of the drug (mol /kg) providing a 50% life extension in L1210 assays when given at qd 1-5 schedule.; type: functional, Mus musculus

pIC50 [1]	Structure (SMILES)	Log 1/D50 [2]
6.60	CCNc1ccc(Nc2c3ccccc3nc3ccccc23)cc1	–
7.70	O=C(Nc1ccc(Nc2c3ccccc3nc3ccccc23)cc1)c1ccccc1	–
6.74	CNc1ccc(Nc2c3ccccc3nc3ccccc23)cc1	–
6.60	Oc1ccc(Nc2c3ccccc3nc3ccccc23)cc1	–
6.22	CN(C)c1ccc(Nc2c3ccccc3nc3ccccc23)cc1	–
8.46	O=S(=O)(Nc1ccc(Nc2c3ccccc3nc3ccccc23)cc1)c1ccccc1	–

Second part, the molecule before the results:

Structure (SMILES)	pIC50 [1]	Log 1/D50 [2]
COP(=O)(Nc1ccc(Nc2c3ccccc3nc3ccccc23)cc1)OC	7.82	4.46
CS(=O)(=O)Nc1ccc(Nc2c3ccccc3nc3ccccc23)cc1	7.46	–
Nc1ccc(Nc2c3ccccc3nc3ccccc23)cc1	6.46	–
COC(=O)Nc1ccc(Nc2c3ccccc3nc3ccccc23)cc1	7.22	–
CC(=O)Nc1ccc(Nc2c3ccccc3nc3ccccc23)cc1	7.00	–
